Columns and labels:
[1] = biological target: T1, Phosphatidylinositol 5-phosphate 4-kinase type-2 alpha (Homo sapiens) (UniProt P48426); settings: at 1 µM
T1 sequence (whole entry): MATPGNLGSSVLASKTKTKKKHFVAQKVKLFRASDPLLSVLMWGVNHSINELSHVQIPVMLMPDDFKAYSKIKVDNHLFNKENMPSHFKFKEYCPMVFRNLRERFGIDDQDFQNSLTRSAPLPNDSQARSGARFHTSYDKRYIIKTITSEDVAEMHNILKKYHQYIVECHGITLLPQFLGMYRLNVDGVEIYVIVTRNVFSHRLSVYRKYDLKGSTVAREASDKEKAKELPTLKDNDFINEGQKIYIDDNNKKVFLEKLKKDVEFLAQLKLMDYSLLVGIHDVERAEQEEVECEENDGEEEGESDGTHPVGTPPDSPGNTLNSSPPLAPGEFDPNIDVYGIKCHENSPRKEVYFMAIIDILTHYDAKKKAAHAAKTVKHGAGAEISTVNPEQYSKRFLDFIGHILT

[2] = biological target: Casein kinase II subunit alpha (Homo sapiens, UniProt P68400); experiment: Selectivity interaction (KinomeScan (DiscoverX)) EUB0000045b CSNK2A1
Sequence of Casein kinase II subunit alpha (P68400 whole entry, looked up): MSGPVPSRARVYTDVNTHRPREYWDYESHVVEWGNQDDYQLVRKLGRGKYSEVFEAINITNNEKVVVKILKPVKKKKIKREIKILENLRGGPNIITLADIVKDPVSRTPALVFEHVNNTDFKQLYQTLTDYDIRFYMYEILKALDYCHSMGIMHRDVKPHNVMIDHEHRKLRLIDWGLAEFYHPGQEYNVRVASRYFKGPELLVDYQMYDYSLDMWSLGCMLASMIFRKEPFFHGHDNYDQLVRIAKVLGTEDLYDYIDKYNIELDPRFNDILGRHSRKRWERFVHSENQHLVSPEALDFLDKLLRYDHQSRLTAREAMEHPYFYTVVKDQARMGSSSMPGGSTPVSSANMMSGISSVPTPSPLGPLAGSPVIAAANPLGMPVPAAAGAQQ

[3] = biological target: Vascular endothelial growth factor receptor 3 (Homo sapiens, UniProt P35916); experiment: Selectivity interaction (KinomeScan (DiscoverX)) EUB0001049a FLT4; settings: at 1 µM
Sequence of Vascular endothelial growth factor receptor 3 (P35916 whole entry): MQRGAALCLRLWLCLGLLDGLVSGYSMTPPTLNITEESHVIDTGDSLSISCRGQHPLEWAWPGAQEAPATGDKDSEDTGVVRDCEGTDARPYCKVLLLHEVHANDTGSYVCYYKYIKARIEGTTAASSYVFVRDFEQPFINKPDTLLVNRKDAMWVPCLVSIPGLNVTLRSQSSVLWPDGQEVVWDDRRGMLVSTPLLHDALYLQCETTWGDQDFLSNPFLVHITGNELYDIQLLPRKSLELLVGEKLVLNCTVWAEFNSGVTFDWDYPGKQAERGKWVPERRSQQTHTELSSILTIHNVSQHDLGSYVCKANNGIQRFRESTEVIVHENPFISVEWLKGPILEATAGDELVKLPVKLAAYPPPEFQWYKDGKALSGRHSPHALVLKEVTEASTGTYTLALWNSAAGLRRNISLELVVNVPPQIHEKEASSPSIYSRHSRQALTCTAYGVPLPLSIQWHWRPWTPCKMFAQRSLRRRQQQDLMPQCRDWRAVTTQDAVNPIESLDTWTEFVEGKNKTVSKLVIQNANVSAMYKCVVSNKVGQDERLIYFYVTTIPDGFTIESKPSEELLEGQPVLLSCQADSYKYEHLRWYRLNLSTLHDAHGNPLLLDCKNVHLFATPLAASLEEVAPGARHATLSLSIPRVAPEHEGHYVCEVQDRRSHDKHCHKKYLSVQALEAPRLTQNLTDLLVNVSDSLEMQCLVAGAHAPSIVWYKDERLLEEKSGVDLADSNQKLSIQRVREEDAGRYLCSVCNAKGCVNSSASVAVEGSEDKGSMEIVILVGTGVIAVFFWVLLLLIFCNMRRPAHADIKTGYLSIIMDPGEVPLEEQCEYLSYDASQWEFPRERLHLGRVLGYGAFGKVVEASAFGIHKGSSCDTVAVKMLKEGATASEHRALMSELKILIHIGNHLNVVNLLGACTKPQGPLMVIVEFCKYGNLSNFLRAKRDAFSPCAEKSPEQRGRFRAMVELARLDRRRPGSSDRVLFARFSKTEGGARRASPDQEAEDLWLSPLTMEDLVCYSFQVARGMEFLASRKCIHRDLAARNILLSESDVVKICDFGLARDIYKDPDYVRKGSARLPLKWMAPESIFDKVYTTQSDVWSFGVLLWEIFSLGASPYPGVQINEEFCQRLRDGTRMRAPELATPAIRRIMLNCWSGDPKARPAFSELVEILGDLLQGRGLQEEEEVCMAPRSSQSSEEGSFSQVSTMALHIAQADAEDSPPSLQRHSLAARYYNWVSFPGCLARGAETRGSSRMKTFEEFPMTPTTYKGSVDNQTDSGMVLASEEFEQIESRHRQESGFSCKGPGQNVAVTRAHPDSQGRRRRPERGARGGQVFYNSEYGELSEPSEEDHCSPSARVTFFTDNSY

[4] = biological target: T2, Homeodomain-interacting protein kinase 4 (Homo sapiens) (UniProt Q8NE63); experiment: Selectivity interaction (KinomeScan (DiscoverX)) EUB0001049a HIPK4; settings: at 1 µM
T2 sequence (whole entry): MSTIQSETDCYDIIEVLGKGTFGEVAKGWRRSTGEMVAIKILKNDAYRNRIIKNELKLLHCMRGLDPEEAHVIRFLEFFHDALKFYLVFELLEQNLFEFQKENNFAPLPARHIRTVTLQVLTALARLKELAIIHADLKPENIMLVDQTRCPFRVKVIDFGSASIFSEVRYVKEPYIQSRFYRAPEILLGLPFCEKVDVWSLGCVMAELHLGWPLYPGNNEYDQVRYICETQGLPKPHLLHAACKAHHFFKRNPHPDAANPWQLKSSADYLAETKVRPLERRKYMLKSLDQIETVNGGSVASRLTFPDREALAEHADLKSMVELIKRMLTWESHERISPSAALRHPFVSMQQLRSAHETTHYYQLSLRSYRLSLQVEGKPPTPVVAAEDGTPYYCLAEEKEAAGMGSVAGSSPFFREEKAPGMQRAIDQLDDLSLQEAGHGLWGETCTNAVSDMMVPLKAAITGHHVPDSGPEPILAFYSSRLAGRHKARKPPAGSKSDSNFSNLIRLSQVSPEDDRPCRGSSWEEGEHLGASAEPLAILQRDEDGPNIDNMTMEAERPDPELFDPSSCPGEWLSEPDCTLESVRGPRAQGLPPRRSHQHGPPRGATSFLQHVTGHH

[5] = biological target: Serine/threonine-protein kinase SIK2 (Homo sapiens) (UniProt Q9H0K1); experiment: Selectivity interaction (KinomeScan (DiscoverX)) EUB0001049a SIK2; settings: at 1 µM
Sequence of Serine/threonine-protein kinase SIK2 (Homo sapiens) (Q9H0K1 whole entry, looked up): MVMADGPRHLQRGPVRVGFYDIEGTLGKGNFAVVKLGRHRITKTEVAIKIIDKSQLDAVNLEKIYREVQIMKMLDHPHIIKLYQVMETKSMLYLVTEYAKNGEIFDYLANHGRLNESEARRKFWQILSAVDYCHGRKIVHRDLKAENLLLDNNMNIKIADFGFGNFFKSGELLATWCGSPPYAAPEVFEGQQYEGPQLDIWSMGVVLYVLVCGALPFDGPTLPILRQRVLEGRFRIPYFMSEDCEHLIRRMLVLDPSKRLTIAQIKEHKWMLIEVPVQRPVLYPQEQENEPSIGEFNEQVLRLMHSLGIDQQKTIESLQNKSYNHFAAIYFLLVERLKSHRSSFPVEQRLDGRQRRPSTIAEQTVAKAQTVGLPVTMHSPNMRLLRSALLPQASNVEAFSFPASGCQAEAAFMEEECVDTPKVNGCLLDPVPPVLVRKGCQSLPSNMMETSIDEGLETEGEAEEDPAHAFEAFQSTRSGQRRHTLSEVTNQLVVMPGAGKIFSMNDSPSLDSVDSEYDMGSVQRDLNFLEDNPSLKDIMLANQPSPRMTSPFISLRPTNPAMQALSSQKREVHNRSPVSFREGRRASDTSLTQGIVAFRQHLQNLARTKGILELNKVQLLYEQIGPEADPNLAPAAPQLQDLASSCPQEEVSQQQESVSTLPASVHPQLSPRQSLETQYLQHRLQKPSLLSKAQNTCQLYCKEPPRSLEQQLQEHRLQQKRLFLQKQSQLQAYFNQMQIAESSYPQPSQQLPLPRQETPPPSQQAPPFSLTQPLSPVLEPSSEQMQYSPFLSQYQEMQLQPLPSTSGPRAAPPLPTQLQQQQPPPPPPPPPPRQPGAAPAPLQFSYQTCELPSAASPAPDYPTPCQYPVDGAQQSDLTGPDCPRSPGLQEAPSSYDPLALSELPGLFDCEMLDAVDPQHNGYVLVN

[6] = biological target: Serine/threonine-protein kinase MRCK gamma (Homo sapiens) (UniProt Q6DT37); experiment: Selectivity interaction (KinomeScan (DiscoverX)) EUB0000666a CDC42BPG; settings: at 10 µM
Sequence of Serine/threonine-protein kinase MRCK gamma (Homo sapiens) (Q6DT37 whole entry): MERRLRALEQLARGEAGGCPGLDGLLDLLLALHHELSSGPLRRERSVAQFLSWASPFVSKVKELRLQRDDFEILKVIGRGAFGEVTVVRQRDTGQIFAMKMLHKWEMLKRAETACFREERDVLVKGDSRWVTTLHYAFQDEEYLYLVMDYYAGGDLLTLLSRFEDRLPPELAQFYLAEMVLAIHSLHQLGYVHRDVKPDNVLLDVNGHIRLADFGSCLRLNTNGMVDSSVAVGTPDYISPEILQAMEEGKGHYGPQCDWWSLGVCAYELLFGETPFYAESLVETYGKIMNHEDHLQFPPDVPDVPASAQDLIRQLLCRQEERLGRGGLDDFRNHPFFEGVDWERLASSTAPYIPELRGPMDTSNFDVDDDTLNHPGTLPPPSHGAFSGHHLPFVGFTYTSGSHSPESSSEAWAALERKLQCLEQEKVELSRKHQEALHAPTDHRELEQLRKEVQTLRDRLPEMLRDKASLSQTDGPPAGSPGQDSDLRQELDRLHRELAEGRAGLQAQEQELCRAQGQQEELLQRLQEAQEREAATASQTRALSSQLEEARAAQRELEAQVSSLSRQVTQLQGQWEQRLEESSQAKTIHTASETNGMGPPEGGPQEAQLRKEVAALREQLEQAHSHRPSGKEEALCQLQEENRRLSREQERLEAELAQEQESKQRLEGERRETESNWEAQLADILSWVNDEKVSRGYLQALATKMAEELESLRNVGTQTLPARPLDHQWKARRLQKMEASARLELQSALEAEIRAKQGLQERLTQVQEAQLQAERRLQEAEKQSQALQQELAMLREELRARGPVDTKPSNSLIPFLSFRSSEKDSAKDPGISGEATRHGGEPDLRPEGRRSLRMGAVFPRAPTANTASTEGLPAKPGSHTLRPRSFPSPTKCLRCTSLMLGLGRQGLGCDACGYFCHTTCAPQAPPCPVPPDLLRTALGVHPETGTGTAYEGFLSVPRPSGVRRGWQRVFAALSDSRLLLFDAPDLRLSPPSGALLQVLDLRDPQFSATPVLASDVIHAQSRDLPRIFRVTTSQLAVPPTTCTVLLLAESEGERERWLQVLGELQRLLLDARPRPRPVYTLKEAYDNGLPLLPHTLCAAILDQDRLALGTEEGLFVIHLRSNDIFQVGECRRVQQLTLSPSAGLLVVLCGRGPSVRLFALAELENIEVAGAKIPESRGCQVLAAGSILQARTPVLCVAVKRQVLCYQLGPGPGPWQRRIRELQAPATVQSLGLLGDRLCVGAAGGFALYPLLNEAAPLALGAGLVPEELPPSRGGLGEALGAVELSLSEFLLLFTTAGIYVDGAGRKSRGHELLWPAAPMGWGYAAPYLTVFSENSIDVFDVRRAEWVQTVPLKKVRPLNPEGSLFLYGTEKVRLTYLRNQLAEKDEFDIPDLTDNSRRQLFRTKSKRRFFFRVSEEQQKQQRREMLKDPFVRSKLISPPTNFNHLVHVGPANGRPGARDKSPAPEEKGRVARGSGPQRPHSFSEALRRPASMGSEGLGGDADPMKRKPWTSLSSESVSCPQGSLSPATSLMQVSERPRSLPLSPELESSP

[7] = biological target: T3, Tyrosine-protein kinase TXK (Homo sapiens) (UniProt P42681); experiment: Selectivity interaction (Kinase panel (Z-LYTE Assay)) EUB0001632a TXK; settings: at 10 µM
T3 sequence (whole entry): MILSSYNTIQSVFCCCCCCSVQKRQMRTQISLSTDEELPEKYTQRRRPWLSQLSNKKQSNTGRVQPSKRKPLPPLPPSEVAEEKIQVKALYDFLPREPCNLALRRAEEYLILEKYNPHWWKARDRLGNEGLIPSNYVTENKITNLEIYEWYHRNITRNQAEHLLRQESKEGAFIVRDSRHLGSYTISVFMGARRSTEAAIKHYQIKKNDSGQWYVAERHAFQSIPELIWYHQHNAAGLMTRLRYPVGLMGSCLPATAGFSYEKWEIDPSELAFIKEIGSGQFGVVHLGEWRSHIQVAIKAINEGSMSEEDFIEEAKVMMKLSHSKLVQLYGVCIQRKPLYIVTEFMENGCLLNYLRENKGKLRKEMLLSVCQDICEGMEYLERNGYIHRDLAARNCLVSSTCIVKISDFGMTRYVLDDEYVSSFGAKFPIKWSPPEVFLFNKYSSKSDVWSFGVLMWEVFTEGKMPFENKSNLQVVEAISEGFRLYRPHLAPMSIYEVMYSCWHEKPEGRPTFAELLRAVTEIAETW

[8] = biological target: T4, Myosin light chain kinase family member 4 (Homo sapiens) (UniProt Q86YV6); experiment: Selectivity interaction (KinomeScan (DiscoverX)) EUB0000695a MYLK4; settings: at 100 nM
T4 sequence (whole entry): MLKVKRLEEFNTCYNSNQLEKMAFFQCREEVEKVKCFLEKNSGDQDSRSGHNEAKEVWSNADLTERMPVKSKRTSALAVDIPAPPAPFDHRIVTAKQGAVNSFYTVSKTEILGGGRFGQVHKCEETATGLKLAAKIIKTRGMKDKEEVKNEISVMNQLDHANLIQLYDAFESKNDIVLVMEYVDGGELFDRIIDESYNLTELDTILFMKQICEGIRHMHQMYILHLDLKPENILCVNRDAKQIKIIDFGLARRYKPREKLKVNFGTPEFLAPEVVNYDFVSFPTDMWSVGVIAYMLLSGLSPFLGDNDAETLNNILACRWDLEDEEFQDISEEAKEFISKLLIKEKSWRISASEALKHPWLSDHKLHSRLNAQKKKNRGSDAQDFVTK

CC[C@@H](Nc1c(C#N)c(-c2ccc(-c3cccc(C)c3F)cc2)nc2cnccc12)C(=O)O [BAY-091]
% of inhibition [1]: 142%

C=CC(=O)Nc1cc(-n2c(=O)ccc3cnc4ccc(-c5ccc(NS(C)(=O)=O)cc5)cc4c32)ccc1C
% of control ([2]; at 1 µM): 84%
% of control ([2]; at 10 µM): 51%

COc1cc(Nc2nc(C)cc(-c3cnn4nc(OC)ccc34)n2)cc(C(F)(F)F)c1
% of control [3]: 89%
% of control [4]: 92%
% of control [5]: 100%

O=C(NOC[C@H](O)CO)c1ccc(F)c(F)c1Nc1ccc(I)cc1F
% of control [6]: 85%

Cn1cc(-n2cnc3c(NCc4nc5cc(Cl)c(Cl)cc5[nH]4)nc(N4CCOCC4)nc32)cn1
% of control [7]: 12.2%

Cc1cc(F)c(C(=O)Nc2cccc(-c3nncn3C(C)C)n2)cc1-n1cnc(C2CC2)c1
% of control [8]: 100%

From ChEMBL document CHEMBL5465560, “Selectivity Literature for EUbOPEN Chemogenomic Library” (2024)
